# Values of other authors as cited in US20180051069A1, “COMPOSITIONS AND METHODS FOR TREATING ALLERGIC INFLAMMATION” (THE GENERAL HOSPITAL CORPORATION, priority 2015, published 2018).
# How the values were obtained:
# [1] = system: rat epididymal α-mannosidase
# [2] = target: alpha-glucosidase amyloglucosidase (Aspergillus niger, UniProt P69328); details: read-out: 50% inhibition
# [3] = system: alpha- or beta-mannosidase
# [4] = system: alpha- or beta-galactosidase
# Golgi mannosidase II = target: T1, Golgi mannosidase II (Homo sapiens, UniProt Q16706)
# T1 sequence (Q16706 1-1144): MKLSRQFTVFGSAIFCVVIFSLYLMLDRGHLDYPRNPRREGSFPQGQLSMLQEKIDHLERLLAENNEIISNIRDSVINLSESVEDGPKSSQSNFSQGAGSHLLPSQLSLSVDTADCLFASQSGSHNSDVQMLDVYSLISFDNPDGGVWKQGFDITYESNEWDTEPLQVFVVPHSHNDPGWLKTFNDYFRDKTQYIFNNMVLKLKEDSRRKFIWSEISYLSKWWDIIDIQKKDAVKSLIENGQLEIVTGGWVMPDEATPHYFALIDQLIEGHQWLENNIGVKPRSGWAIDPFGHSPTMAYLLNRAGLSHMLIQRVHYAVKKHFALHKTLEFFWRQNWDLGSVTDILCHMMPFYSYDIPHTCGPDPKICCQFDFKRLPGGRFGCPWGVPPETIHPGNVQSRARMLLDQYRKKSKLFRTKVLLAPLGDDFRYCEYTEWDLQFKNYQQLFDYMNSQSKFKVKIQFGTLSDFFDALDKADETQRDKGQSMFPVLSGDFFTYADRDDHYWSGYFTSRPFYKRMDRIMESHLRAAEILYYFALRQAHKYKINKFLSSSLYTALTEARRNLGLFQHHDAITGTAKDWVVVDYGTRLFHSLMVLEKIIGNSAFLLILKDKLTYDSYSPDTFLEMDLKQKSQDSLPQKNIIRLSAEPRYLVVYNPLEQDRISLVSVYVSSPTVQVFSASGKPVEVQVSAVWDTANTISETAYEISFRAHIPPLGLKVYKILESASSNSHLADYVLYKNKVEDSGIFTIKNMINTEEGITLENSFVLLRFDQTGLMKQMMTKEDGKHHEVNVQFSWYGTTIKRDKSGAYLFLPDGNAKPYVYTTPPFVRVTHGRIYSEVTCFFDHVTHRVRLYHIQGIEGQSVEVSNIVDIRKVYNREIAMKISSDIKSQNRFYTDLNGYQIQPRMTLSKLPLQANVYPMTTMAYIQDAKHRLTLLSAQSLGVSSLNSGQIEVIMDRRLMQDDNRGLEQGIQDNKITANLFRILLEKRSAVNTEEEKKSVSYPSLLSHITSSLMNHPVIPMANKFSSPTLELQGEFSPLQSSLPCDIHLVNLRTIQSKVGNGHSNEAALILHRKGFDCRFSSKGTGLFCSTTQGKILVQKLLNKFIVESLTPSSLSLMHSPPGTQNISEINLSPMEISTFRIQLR
# Chain of alpha-glucosidase amyloglucosidase (P69328 25-640): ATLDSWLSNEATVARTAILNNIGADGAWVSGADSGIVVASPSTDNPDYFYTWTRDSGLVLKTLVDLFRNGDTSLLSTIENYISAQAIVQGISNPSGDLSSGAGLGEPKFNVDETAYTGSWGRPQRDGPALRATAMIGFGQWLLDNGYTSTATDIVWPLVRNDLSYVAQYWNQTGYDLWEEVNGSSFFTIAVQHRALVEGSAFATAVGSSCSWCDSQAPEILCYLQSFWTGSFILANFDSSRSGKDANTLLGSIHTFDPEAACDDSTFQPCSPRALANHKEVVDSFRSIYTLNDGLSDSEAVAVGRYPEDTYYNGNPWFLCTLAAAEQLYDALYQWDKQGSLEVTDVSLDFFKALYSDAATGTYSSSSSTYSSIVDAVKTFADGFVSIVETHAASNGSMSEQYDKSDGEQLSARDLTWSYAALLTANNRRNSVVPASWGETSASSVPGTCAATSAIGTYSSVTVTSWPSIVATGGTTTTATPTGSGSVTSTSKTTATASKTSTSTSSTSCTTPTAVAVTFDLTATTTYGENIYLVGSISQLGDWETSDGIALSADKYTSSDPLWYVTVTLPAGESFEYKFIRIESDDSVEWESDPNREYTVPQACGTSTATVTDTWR
smiles,measurement,setting,value
CS[C@@H]1[C@@H](N)[C@@H](O)[C@@H](O)[C@H]1O [Mannostatin A],inhibition of rat epididymal α-mannosidase,[1],reported to be an inhibitor
OC[C@@H]1[C@@H](O)[C@H](O)[C@H]2[C@@H](O)CCN21 [Australine],IC50,[2],5.8 µM
same,inhibition of beta-glucosidase,beta-glucosidase,does not inhibit
same,inhibition of alpha- or beta-mannosidase,[3],does not inhibit
same,inhibition of alpha- or beta-galactosidase,[4],does not inhibit
O=C1N[C@@H]2[C@@H](O)[C@@H](O)[C@H](O)[C@@H](CO)N2C1=O [Kifunensine],effect on mannosidase I,mannosidase I,inhibits
same,concentration causing complete shift of N-linked oligosaccharides from complex chains to Man9(GlcNAc)2 structures,cultured mammalian cells; added to cultured mammalian cells,≥ 1 µg/mL
O[C@H]1[C@H](O)[C@@H](O)CN2CC[C@H](O)[C@H]12 [Castanospermine],inhibition of alpha-glucosidase activities,alpha-glucosidase,inhibits
OC[C@H]1NC[C@@H](O)[C@@H](O)[C@@H]1O [Deoxymannojirimycin],inhibition of rat liver mannosidase I,rat liver mannosidase I,inhibitor
same,effect on synthesis of N-linked oligosaccharides,cultured mammalian cells; intact cells,blocked the synthesis of complex types of N-linked oligosaccharides
O[C@H]1[C@H]2[C@H](O)CCCN2C[C@H]1O [Swainsonine],inhibition of Golgi mannosidase II,Golgi mannosidase II,potent inhibitor
same,effect on mannosidase I,mannosidase I,no effect
